Values after ≈ are worked out from the molar mass of the structure shown.
Details: buffer; pH 7.4; 6.0 h; 150.0 µM

SMILES | solubility kinetic [µg/mL]
Cc1cc(N2CCN(c3ccccc3)CC2)nc(-n2nc(C)cc2C)n1 | 40 (≈ 115 µM)
COc1cccc(C(=O)Nc2nnc(S(=O)(=O)N3CCOCC3)s2)c1 | > 57
Cc1noc(C)c1-c1csc(N2CCC(C(N)=O)CC2)n1 | > 45
O=C(c1ccc2ncccc2c1)N1CCc2c(nc3cc[nH]n3c2=O)C1 | 11.2 (≈ 32.3 µM)
Fc1ccc(Nc2nc(-c3ccnc4ccccc34)nc3ccccc23)cc1F | < 1
Fc1cc(Nc2nc(-c3ccncc3)nc3ccccc23)ccc1-c1cccnc1 | < 1
CCc1oc2ccccc2c1C(=O)c1cc(I)c(O)c(I)c1 | > 77
CNc1oc(-c2cccc(Cl)c2Cl)nc1C#N | < 1
CN(C)C(=O)NC1CCC(CCN2CCN(c3cccc(Cl)c3Cl)CC2)CC1 (stereo not given) | 34.8 (≈ 81.3 µM)
NC(=O)C(=O)N/N=C/c1ccc([N+](=O)[O-])o1 | > 33
CC/C=C\C/C=C\C/C=C\C/C=C\C/C=C\C/C=C\CCC(=O)NCCO | > 55
Cc1ccc2c(c1)N(S(=O)(=O)c1cc(-c3onc(C)c3C)ccc1C)CCO2 | < 1
COc1cc(Cl)c(C)cc1Nc1c2c(nc3ccccc13)CCC2 | 3.79 (≈ 11.2 µM)
CC(=O)N[C@H]1CN(C2CCN(c3ccc(F)cc3C)CC2)C[C@@H]1C1CC1 | 20.3 (≈ 56.4 µM)
Cc1cc(CNC(=O)c2ccc3c(c2)n(CC2CC2)c(=O)n3C2CCCCC2)on1 | 15.6 (≈ 38.3 µM)
CCc1ccc2oc(NC3=NC(c4[nH]ncc4Cl)C4=C(CCCC4=O)N3)nc2c1 (stereo not given) | < 1
NC(=O)C1CCN(c2nnc(-c3ccc4c(c3)OCCCO4)s2)CC1 | 9.84 (≈ 27.3 µM)
COc1cccc(CN2CCNc3cc(Nc4ccccc4)ncc3C2)c1 | 49.9 (≈ 139 µM)
COc1ccc(CCN2C(=O)N(c3ccc(F)cc3)C(=O)C2CC(=O)Nc2ccc(F)c(F)c2)cc1 (stereo not given) | 9.71 (≈ 19.5 µM)
O=C(CNC(=O)c1cnccn1)NC1CCCc2c1[nH]c1ccc(Cl)cc21 (stereo not given) | 1.46 (≈ 3.79 µM)
COC[C@@H]1CN(C(=O)c2n[nH]c3ccccc23)C[C@H]1c1nc(C)no1 | > 100

The remaining lines, values ahead:

solubility kinetic [µg/mL] | SMILES
< 1 | O=C(NCc1ccccc1)c1nc(S(=O)(=O)Cc2ccc(F)cc2)ncc1Cl
2.61 (≈ 6.79 µM) | COc1ccccc1CNS(=O)(=O)c1ccc(-c2cnc(C3CC3)o2)cc1
< 1 | COc1cccc(C(=O)Nc2ccc3oc(-c4ccc5ccccc5c4)nc3c2)c1
< 1 | CNc1oc(-c2cccc3ccccc23)nc1C(=O)Nc1cccc(C#N)c1
4.59 (≈ 10.4 µM) | Cc1ccc(-n2nc3c(=O)n(CCCC(=O)NC(C)c4ccccc4)nc(C)c3c2C)cc1 (stereo not given)
24.3 (≈ 56.4 µM) | O=C(Nc1nc(-c2ccccn2)cs1)c1cccc(S(=O)(=O)N2CCOCC2)c1
< 1 | Cc1ccc(-c2ccc(CNc3nc(-c4ccccc4C(C)C)nc4ccccc34)cc2)cn1
4.26 (≈ 15.2 µM) | COc1ccc(-c2cn[nH]c2-c2ccc(OC)cc2)cc1
< 1 | CCOC(=O)c1ccc(N2C(=O)c3[nH]nc(-c4ccc(OC)cc4)c3C2c2ccc(C)cc2)cc1 (stereo not given)
< 1 | Cc1ccc(S(=O)(=O)Nc2ccccc2C(=O)Nc2nc(-c3ccccc3)c(C)s2)cc1
39 (≈ 66 µM) | CC(=O)c1c(C)[nH]c(C(=O)Nc2ccc(OCCCN(C)C)c(S(=O)(=O)Nc3ccc(Br)cc3)c2)c1C
< 1 | Cc1ccc(NC(=O)C(Cc2ccccc2)NS(=O)(=O)c2cccs2)cc1Cl (stereo not given)
1.27 (≈ 3.59 µM) | C#CCNC(=O)c1nc(-c2ccc([S+](C)(=O)[O-])cc2)c2ccccn12
> 30 | O=C(Nc1cccnc1)c1cccs1
< 1 | O=C(Nc1ncc(-c2ccccc2)s1)c1ccc(-c2cccc([N+](=O)[O-])c2)o1
8.88 (≈ 25.1 µM) | CCOc1ccc(CCNC(=O)c2cc3ccccc3o2)cc1OCC
< 1 | COc1ccc(Nc2ncc(C(=O)Nc3cccc(Cl)c3)c3ccccc23)cc1
< 1 | CC(=O)c1c(C)[nH]c(C(=O)Nc2cccc([S+](=O)([O-])Nc3c(C)cccc3C)c2)c1C
> 67 | COc1ccc(Cn2c(=O)[nH]c3cc(C(=O)NCCCN4CCCCC4)ccc3c2=O)cc1
2.16 (≈ 5.24 µM) | CC(=O)c1c(C)[nH]c(C(=O)Nc2cccc([S+](=O)([O-])Nc3ccccc3)c2)c1C
< 1 | N#Cc1cnccc1-c1nc(Nc2ccc(F)c(F)c2)c2ccccc2n1
1.1 (≈ 3.15 µM) | O=C(Nc1nc(-c2ccccn2)cs1)c1cccc(-n2cnnn2)c1
1.84 (≈ 5.01 µM) | NC(=O)N1CCN(c2nc(-c3ccc(Br)cc3)cs2)CC1
4.87 (≈ 9.92 µM) | O=S(=O)(Nc1nc2ccccc2s1)c1ccc(NCc2ccc(Br)cc2O)cc1
> 74 | O=C1CCC(CNC(=O)c2nc(-c3ccccc3)cc3[nH]ccc23)N1 (stereo not given)
45.8 (≈ 101 µM) | O=C(Nc1nc(-c2ccccc2)cs1)c1ccncc1NS(=O)(=O)c1ccc(F)cc1
< 1 | CCS(=O)(=O)c1cccc(C(=O)Nc2ccc(-c3nc4ccccc4s3)c(O)c2)c1
> 53 | O=C(Nc1ccc(S(=O)(=O)Nc2nccs2)cc1)c1cccnc1
< 1 | O=C(Nc1nc(-c2ccccc2)cs1)c1ccccc1[N+](=O)[O-]
